Experimental data reported in patent US7829524B2, “Antimicrobial peptides” (Novozymes Adenium Biotech A/S, priority 2003, dated 2010).
Read-outs that look alike come from different tables or passages of the source. Where no end group is shown, it is not given here.

Assays:
E. coli TOP10 = type: cell-based
Protocol: A range of synthetic antimicrobial polypeptides were expressed in E. coli TOP10 (Invitrogen) using arabinose as inducer, as disclosed in Example 1 of International patent application WO 00/73433 (with minor modifications). […] Briefly, fresh overnight cultures grown in RM medium containing 0.2% glucose and ampicillin (100 μg/ml) were diluted 300-fold into 150 microliter of RM containing 0.2% glycerol and ampicillin (100 μg/ml) and different concentrations of arabinose (0, 0.01% or 0.1%) in a microtiter plate and incubated at 37 degrees Celsius with vigorous shaking. The growth curve was monitored by measuring OD450 using a Bioscreen C Microbiology reader (Thermo Electron Corporation) at intervals of 30 minutes for 14 hours (see Invitrogen protocol of the pBAD/gill A, B and C vectors catalogue nos. V450-01 for buffer and media composition). The percentage of growth inhibition was calculated as the end point OD measurement of each sample divided by the end point OD measurement obtained from cells containing the control vector and multiplied by 100. The formula is the following: [formula] where “blank OD” corresponds to the OD of an empty well.

[1] = tested on: Eschericia coil (ATCC10536); type: cell-based, Escherichia coli; settings: ATCC10536
Protocol: (§1) According to the NCCLS guidelines for susceptibility test of novel antimicrobial compounds, we found a broad spectrum of activity of Cat1 (Methods for Dilution Antimicrobial Susceptibility Tests for Bacteria That Grow Aerobically; Approved Standard-Fifth Edition. NCCLS document M7-A5 (ISBN1-56238-394-9)).
(§2) The antimicrobial activity of the polypeptides of the invention was analyzed using the Microdilution Broth Assay (see Example 1) with Mueller Hinton Broth (MHB) media. Four different bacterial strains were tested in this setup; Micrococcus luteus (ATCC 9341), Pseudomonas aeruginosa (ATCC 27853), Escherichia coli (ATCC 10536) and Klebsiella pneumoniae (DSM681). The amino acid sequence of the polypeptides and the Minimal Inhibitory concentrations (MIC, microgram/ml) obtained is presented in Table 7 below.

[2] = tested on: Pseudomonas aeroginosa (ATCC27853); type: cell-based, Pseudomonas aeruginosa; settings: ATCC27853
Protocol: as §1
(§3) In another campaign, the specific MICs of Cat1 were determined against a variety of microbial strains relevant for wound infections. As recommended in the above-mentioned NCCLS protocol, the strains were grown in cationic adjusted Muller-Hinton Broth. The highest concentration tested was 32 μg/ml.
Minimal inhibitory concentrations of Cat1 were also determined using cation-adjusted Mueller hinton broth (MHB) in the microbroth dilution assay, wherein MHB was used with different modifications as depicted in Table 2 below. The selected test organism was Pseudomonas aeroginosa (ATCC 27853). […]

[3] = tested on: Klebsiella pneumoniae (DSM681); type: cell-based
Protocol: as §1, §2

[4] = tested on: Micrococcus luteus (ATCC9341); type: cell-based; settings: ATCC9341
Protocol: as §1, §3, §2

Escherichia coli Top10 = assay: Radial Diffusion Assay using minimal conditions (MEC); type: cell-based; settings: Table 8
Protocol: (§4) A modified version of a previously published protocol has been applied in the detection of antimicrobial activity (Lehrer et al., (1991) Ultra sensitive assays for endogenous antimicrobial polypeptides J Immunol Methods 137: 167-173). Target bacteria (10^6 colony forming units (CFU)) were added to 10 ml of underlay agarose (1% low electro-endosmosis agarose, 0.03% Trypticase soy broth, 10 mM sodium phosphate, pH 7.4, 37 degrees Celsius). Suspension was solidified on an INTEGRID Petri Dish (Becton Dickinson Labware). A 3 mm Gel Puncher was used to make holes in the underlay agarose (Amersham Pharmacia Biotech, Sweden). Samples were added to the holes and incubated at 37 degrees Celsius, 3 hours. An overlay was poured on top and the plate was incubated overnight (LB media, 7.5% Agar). Antimicrobial activity was seen as bacterial clearing zones around the wells. Living cells was counterstained by adding 10 ml, 0.2 mM MTT (3-(4,5-Dimethylthiazol-2-yl)-2,5-diphenyltetrazolium bromide Thiazolyl blue).
(§5) The antimicrobial activity of the polypeptides of the invention was also analyzed in a Radial Diffusion Assay (see Example 1) using minimal conditions. Two bacterial strains were tested in this setup; Staphylococcus camosus and Escherichia coli Top10. The amino acid sequence of the polypeptides and the Minimal Effective Concentration (MEC, microgram/ml) obtained is presented in table 8 below.

Staphylococcus camosus = assay: as above; type: cell-based; settings: Table 8
Protocol: as §4, §5

[5] = Table 5, 0.1% arabinose, end point OD450, 14 hours
[6] = Table 4, 0.01% arabinose, end point OD450, 14 hours
[7] = Table 4, 0.1% arabinose, end point OD450, 14 hours

GLLRRLRKKIGKKLKKIAR [SEQ ID NO: 59, GLLRRLRKKIGKKLKKIAR]
Growth inhibition using 0.01% arabinose (%) (E. coli TOP10; TOP10, 14 h): 93% | Growth inhibition using 0.1% arabinose (%) (E. coli TOP10; TOP10, 14 h): 100% | MIC [1]: 16 µg/mL | MIC [2]: 8 µg/mL | MIC [3]: 32 µg/mL | MIC [4]: 32 µg/mL | MEC (Escherichia coli Top10): 18.3 µg/mL | MEC (Staphylococcus camosus): 1.8 µg/mL

GRIKRVGEKIGKKLKKIGQVIKHLRILVP (Synthetic antimicrobial peptide) [SEQ ID NO: 38]
Growth inhibition using 0.1% arabinose (%) (E. coli TOP10; [5]): 96% | MEC (Escherichia coli Top10): 8.5 µg/mL | MEC (Staphylococcus camosus): 8 µg/mL

GLLKRLGRKIGKKLKKIAR [SEQ ID NO: 66, GLLKRLGRKIGKKLKKIAR]
Growth inhibition using 0.01% arabinose (%) (E. coli TOP10; TOP10, 14 h): 92% | Growth inhibition using 0.1% arabinose (%) (E. coli TOP10; TOP10, 14 h): 100% | MIC [1]: 8 µg/mL | MIC [2]: 64 µg/mL | MIC [4]: 64 µg/mL | MEC (Escherichia coli Top10): 13.5 µg/mL | MEC (Staphylococcus camosus): 2 µg/mL

GLLRRFRKKIGKKLKKIAR [SEQ ID NO: 62, GLLRRFRKKIGKKLKKIAR]
Growth inhibition using 0.01% arabinose (%) (E. coli TOP10; TOP10, 14 h): 94% | Growth inhibition using 0.1% arabinose (%) (E. coli TOP10; TOP10, 14 h): 98% | MIC [1]: 16 µg/mL | MIC [2]: 64 µg/mL | MIC [3]: 32 to 64 µg/mL | MIC [4]: 64 µg/mL | MEC (Escherichia coli Top10): 28.0 µg/mL | MEC (Staphylococcus camosus): 1.1 µg/mL

GRFRRFRKKIGKKLKKIGLVIKHIRILVP (Synthetic antimicrobial peptide) [SEQ ID NO: 14]
Growth inhibition using 0.01% arabinose (%) (E. coli TOP10; [6]): 94% | Growth inhibition using 0.1% arabinose (%) (E. coli TOP10; [7]): 100%

GLLRRLGRKIGKKLKKIGQKIKAIRILVP (Synthetic antimicrobial peptide) [SEQ ID NO: 49]
Growth inhibition using 0.1% arabinose (%) (E. coli TOP10; [5]): 96%

GLLKRLRKKIGKKLKKIGQKIKPIRKLVP (Synthetic antimicrobial peptide) [SEQ ID NO: 25]
Growth inhibition using 0.1% arabinose (%) (E. coli TOP10; [5]): 94%

GRLRRLRRKIGEKLKKFGQVIKALRILVP (Synthetic antimicrobial peptide) [SEQ ID NO: 12]
Growth inhibition using 0.01% arabinose (%) (E. coli TOP10; [6]): 94% | Growth inhibition using 0.1% arabinose (%) (E. coli TOP10; [7]): 99%

GLLRRLWRKIGRKLKKYGQKIKALRKLVP [SEQ ID NO: 13]
Growth inhibition using 0.01% arabinose (%) (E. coli TOP10; TOP10, 14 h): 96% | Growth inhibition using 0.1% arabinose (%) (E. coli TOP10; TOP10, 14 h): 100% | MIC [1]: 64 µg/mL | MIC [2]: 32 µg/mL | MIC [3]: 32 µg/mL | MIC [4]: 32 µg/mL | MEC (Escherichia coli Top10): 27.0 µg/mL | MEC (Staphylococcus camosus): 4.4 µg/mL

GLLRRFRNKIGKKLKKIGQKIKPIRKLVP (Synthetic antimicrobial peptide) [SEQ ID NO: 50]
Growth inhibition using 0.1% arabinose (%) (E. coli TOP10; [5]): 92%

GLLRRFWMKIGGKLKKFGQMIKHLRKLVP (Synthetic antimicrobial peptide) [SEQ ID NO: 11]
Growth inhibition using 0.01% arabinose (%) (E. coli TOP10; [6]): 92% | Growth inhibition using 0.1% arabinose (%) (E. coli TOP10; [7]): 99%

GLLRRLRKKIEKKLKKYGPKIKALRKLVP (Synthetic antimicrobial peptide) [SEQ ID NO: 37]
Growth inhibition using 0.1% arabinose (%) (E. coli TOP10; [5]): 94%

GLLRRFRRKIGRKLKKYGLMIKPLRKLVP (Synthetic antimicrobial peptide) [SEQ ID NO: 21]
Growth inhibition using 0.1% arabinose (%) (E. coli TOP10; [5]): 94%

GLLKRLGRKIGKKLKKFGQKIKAIRKLVP (Synthetic antimicrobial peptide) [SEQ ID NO: 8]
Growth inhibition using 0.01% arabinose (%) (E. coli TOP10; [6]): 97% | Growth inhibition using 0.1% arabinose (%) (E. coli TOP10; [7]): 100%

GLLRRFRKKIGKKLKKITR (Synthetic antimicrobial peptide) [SEQ ID NO: 67]
Growth inhibition using 0.01% arabinose (%) (E. coli TOP10; Table 6, 0.01% arabinose, end point OD450, 14 hours): 90% | Growth inhibition using 0.1% arabinose (%) (E. coli TOP10; Table 6, 0.1% arabinose, end point OD450, 14 hours): 100%

GLLRRLRGKIGKKLKKIGQKIKAIRKLVP (Synthetic antimicrobial peptide) [SEQ ID NO: 4]
Growth inhibition using 0.01% arabinose (%) (E. coli TOP10; [6]): 89% | Growth inhibition using 0.1% arabinose (%) (E. coli TOP10; [7]): 100%

GRFKRFWKKIGRKFKKIGQMLKPIRILVP (Synthetic antimicrobial peptide) [SEQ ID NO: 9]
Growth inhibition using 0.01% arabinose (%) (E. coli TOP10; [6]): 96% | Growth inhibition using 0.1% arabinose (%) (E. coli TOP10; [7]): 100%

GLLRRLRKKIGKKLKFFGQKIKHIRILVP (GLLRRLRKKIGKKLKKFGQKIKHIRILVP; Synthetic antimicrobial peptide) [SEQ ID NO: 7]
Growth inhibition using 0.01% arabinose (%) (E. coli TOP10; [6]): 93% | Growth inhibition using 0.1% arabinose (%) (E. coli TOP10; [7]): 100%

GLLRRLWKKIGRKFKKYGQVIKHIRKLVP (Synthetic antimicrobial peptide) [SEQ ID NO: 48]
Growth inhibition using 0.1% arabinose (%) (E. coli TOP10; [5]): 97%

GLLRRFWKKIGKKLKKFGQKIKPLPKLVP [SEQ ID NO: 41]
Growth inhibition using 0.1% arabinose (%) (E. coli TOP10; TOP10, 14 h): 96% | MIC [1]: 32 µg/mL | MIC [2]: 16 µg/mL | MIC [3]: 32 µg/mL | MIC [4]: 32 µg/mL | MEC (Escherichia coli Top10): 16.6 µg/mL | MEC (Staphylococcus camosus): 3.8 µg/mL

GLFRRLRRKIGKKFKKFGQKIKPLRKLVP (Synthetic antimicrobial peptide) [SEQ ID NO: 46]
Growth inhibition using 0.1% arabinose (%) (E. coli TOP10; [5]): 96%

GRFRRLGRKIGEKLKKFGQVIKAIRILVP (Synthetic antimicrobial peptide) [SEQ ID NO: 42]
Growth inhibition using 0.1% arabinose (%) (E. coli TOP10; [5]): 95%

GLLRRLRNKIRKKLKKFGQKIKAIRILVP (Synthetic antimicrobial peptide) [SEQ ID NO: 16]
Growth inhibition using 0.01% arabinose (%) (E. coli TOP10; [6]): 96% | Growth inhibition using 0.1% arabinose (%) (E. coli TOP10; [7]): 100%

GRLRRFGKKIGKKIKKFGQLIKALRILVP (GRLRRFGKKIGKKLKKFGQLIKALRILVP; Synthetic antimicrobial peptide) [SEQ ID NO: 40]
Growth inhibition using 0.1% arabinose (%) (E. coli TOP10; [5]): 95%
